The values that follow come from patent US20240425478A1, “CYCLOPENTYLPYRAZOLE CDK2 INHIBITORS” (Genentech, Inc., priority 2021, published 2024).

Each structure is given as a SMILES string. Read-outs that look alike come from different tables or passages of the source.

Assay [1] addresses T1, Cyclin Dependent Kinase 2/Cyclin E1 (CDK2-cycE1) (Homo sapiens, UniProt P24941).
T1 construct: purchased ProQinase 0050-0055-1
The experiment in a line: CDK2-cycE1 TR-FRET (LANCE) enzyme assay.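 On improvement in potency against CDK2 (Ki) over Comparator C: fold lower CDK2 Ki than comparator c (Ki 0.032 µM).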 The settings on record: for Ki: enzymatic assay, read-out: CDK2 Ki; for FS CDK1/CDK2 / FS CDK4/CDK2: fold selectivity; for increased fold-selectivity CDK4/CDK2 over Comparator C: (+) sign after FS CDK4/CDK2. Type of assay: biochemical. The method in brief: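 Compound dose responses pre-incubated 30 min with CDK2-cycE1 in 50 mM HEPES pH 7.5, 10 mM MgCl2, 2 mM TCEP, 0.05% BGG, 0.01% Brij 35. Reaction quenched with EDTA (15 mM final), phospho-MBP detected by Eu-anti-phospho-MBP TR-FRET (acceptor/donor ratio). Inhibition constants from Morrison equation.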

The subject of another assay is SKOV-3 (ATCC HTB-77). Briefly: SKOV-3 EdU incorporation cell proliferation assay (CDK4/6-dependent). Type of assay: cell-based. As to conditions: for IC50: Homo sapiens, cellular assay, read-out: CDK4/6 SKOV-3 IC50; for FS SKOV-3/OVISE: fold selectivity, cellular IC50 ratio. The method in brief:
(§1)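 Cells in RPMI/10% FBS dosed with compound (0.5% DMSO final) for 16 h at 37 °C, 5% CO2, then EdU 0.5 μM final for 8 h before fixation and imaging. IC50 from 4-parameter logistic fit of EdU-positive cell fraction versus dose.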

The test system of assay [2] is OVISE (JCRB1043, CCNE1-amplified). Briefly: OVISE EdU incorporation cell proliferation assay (CDK2-dependent). Type of assay: cell-based. The settings on record: for IC50: cellular assay, read-out: CDK2 OVISE IC50; for FS SKOV-3/OVISE / FS p-H3/OVISE: fold selectivity; for FS p-H3/OVISE: cellular p-H3 IC50 over OVISE IC50; for increased fold-selectivity SKOV-3/OVISE over Comparator C: (+) sign after FS SKOV-3/OVISE; for improvement in CDK2 OVISE cell potency over Comparator C: Comparator C 5.5 μM. The method in brief: as §1

Assay [3] concerns the target T2, Cyclin Dependent Kinase 1/Cyclin A2 (CDK1-cycA2) (Homo sapiens, UniProt P06493).
T2 construct: purchased ProQinase 0134-0054-1
Briefly: CDK1-cycA2 TR-FRET (Lance) enzyme assay. Type of assay: biochemical. As to conditions: for Ki: Table O, enzymatic assay; for FS CDK1/CDK2: fold selectivity, enzymatic Ki ratio. The method in brief:
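Human CDK1/cyclin A2 pre-incubated 30 min with compound dose responses in 50 mM HEPES pH 7.5, 10 mM MgCl2, 2 mM TCEP, 0.05% BGG, 0.01% Brij 35. Reaction quenched with EDTA (15 mM final); TR-FRET readout using Eu-anti-phospho-4E-BP1, acceptor/donor ratio. Inhibition constants from Morrison equation.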

Assay [4] has as its target T3, Cyclin Dependent Kinase 4/Cyclin D3 (CDK4-cycD3) (Homo sapiens, UniProt P11802).
T3 construct: purchased Carna Biosciences 04-105
Briefly: CDK4-cycD3 TR-FRET (LANCE) enzyme assay. The settings on record: for Ki: Table O, enzymatic assay; for FS CDK4/CDK2: fold selectivity, enzymatic Ki ratio. Type of assay: biochemical. The method in brief: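 Compound dose responses pre-incubated 30 min with enzyme mix in 50 mM HEPES pH 7.5, 10 mM MgCl2, 2 mM TCEP, 0.05% BGG, 0.01% Brij 35. Reaction quenched with EDTA (15 mM final); Eu-anti-phospho-4E-BP1 TR-FRET detection, acceptor/donor ratio. Ki derived by Morrison equation.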

The subject of a further assay is HCT116 cells. Briefly: p-H3 HCT-116 mitotic release cell proliferation assay (cellular CDK1). The settings on record: Homo sapiens, HCT-116; Table O, cellular assay; read-out: CDK1 p-H3 IC50. In kind it is cell-based. On the procedure:
Inhibition of cellular CDK1 determined by release of cells from nocodazole-induced mitotic arrest, as measured by decrease in phospho-Histone H3. Histone H3 (Ser 10) level is detected in cell lysates by producing a Fluorescence Resonance Energy Transfer (FRET) signal between two antibodies, Phospho-Histone H3 Cryptate (acting as the donor) and Phospho-Histone H3 d2 (acting as the acceptor).
Plates are allowed to rest overnight at 37° C./5% CO2. The following morning, nocodazole is diluted in complete medium, and 5 μL is added to each test well and positive control well for a final concentration of 500 nM. Plates are then incubated for 16 hours at 37° C./5% CO2. […] 10 μL of diluted compound is then transferred to the cell plate (final DMSO concentration 0.1%). Cell plates are then incubated for 4 hours in 37° C. 5% CO2. A cell lysis buffer is prepared on ice using reagents from the Phospho-Histone H3 (Ser10) cellular kit (Cisbio-64HH3PEG). Supernatant is discarded from the cell plate and 80 μL of the supplemented cell lysis buffer (1:99 dilution of the Blocking Reagent and the 1× cell lysis buffer provided in the kit) is added to each of the experimental wells. The cell lysis reaction is allowed to proceed at room temperature while shaking vigorously for 30 minutes. The 384-well HTRF (Homogeneous Time Resolved Fluorescence) plate is prepared by adding 2 μL of each diluted antibody (Phospho-Histone H3 Cryptate antibody and Phospho-Histone H3 d2 antibody diluted 19:1 in a detection buffer) and 12 μL of the supplemented cell lysis buffer to each well in the HTRF plate. 4 μL of the cell lysate is added to the prepared HTRF plate which is then sealed and the reaction is allowed to proceed for a minimum of 2 hours at room temperature.

Setting [5] is: Table O, enzymatic CDK1 Ki over CDK2 Ki.
The mark [6] stands for this setting: Table O, enzymatic CDK4 Ki over CDK2 Ki.
[7] abbreviates: Table O, cellular SKOV-3 IC50 over OVISE IC50.
Where [8] appears, read: Table Q, in brackets after OVISE IC50.

T3 sequence (P11802 whole entry): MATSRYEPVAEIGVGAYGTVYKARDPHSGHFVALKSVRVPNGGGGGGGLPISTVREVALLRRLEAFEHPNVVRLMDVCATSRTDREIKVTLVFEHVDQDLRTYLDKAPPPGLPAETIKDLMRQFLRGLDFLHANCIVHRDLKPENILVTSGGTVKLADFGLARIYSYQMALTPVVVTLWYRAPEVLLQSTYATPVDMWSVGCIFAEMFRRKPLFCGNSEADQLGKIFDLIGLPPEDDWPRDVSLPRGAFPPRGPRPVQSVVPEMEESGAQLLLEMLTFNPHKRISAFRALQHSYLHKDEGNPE
T3 sequence (P30281 whole entry partner): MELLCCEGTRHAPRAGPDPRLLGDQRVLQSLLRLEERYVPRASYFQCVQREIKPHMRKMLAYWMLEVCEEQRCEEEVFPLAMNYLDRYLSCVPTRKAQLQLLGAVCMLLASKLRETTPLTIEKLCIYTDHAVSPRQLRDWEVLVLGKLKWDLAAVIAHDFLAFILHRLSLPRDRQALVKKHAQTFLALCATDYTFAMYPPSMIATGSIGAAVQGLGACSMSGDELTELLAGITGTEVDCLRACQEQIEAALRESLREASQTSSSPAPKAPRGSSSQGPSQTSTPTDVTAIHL
T2 sequence (P06493 whole entry): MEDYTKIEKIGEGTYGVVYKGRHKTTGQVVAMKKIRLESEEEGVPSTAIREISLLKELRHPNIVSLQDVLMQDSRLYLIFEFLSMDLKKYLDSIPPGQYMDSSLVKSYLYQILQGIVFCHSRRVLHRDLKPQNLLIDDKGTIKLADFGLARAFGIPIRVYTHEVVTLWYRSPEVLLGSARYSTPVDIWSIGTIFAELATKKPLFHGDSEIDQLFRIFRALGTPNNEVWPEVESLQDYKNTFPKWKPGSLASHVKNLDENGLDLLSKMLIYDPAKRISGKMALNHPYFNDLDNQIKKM
T2 sequence (P20248 whole entry partner): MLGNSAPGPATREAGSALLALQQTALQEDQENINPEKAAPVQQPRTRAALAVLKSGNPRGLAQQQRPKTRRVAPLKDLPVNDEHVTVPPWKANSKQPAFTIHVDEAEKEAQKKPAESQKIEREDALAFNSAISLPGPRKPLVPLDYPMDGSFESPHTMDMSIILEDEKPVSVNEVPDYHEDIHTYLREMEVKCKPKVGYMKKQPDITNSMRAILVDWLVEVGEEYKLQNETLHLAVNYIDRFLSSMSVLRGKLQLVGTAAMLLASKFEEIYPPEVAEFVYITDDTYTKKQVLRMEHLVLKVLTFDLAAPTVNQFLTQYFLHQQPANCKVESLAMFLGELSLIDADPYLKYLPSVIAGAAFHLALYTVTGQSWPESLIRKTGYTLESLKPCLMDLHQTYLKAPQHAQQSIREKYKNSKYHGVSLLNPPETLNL

For `Cc1cncc(Nc2cc([C@H]3CC[C@@H](OC(=O)NC(C)C)C3)[nH]n2)n1` [Example 2M, (1R,3S)-3-(3-((6-methylpyrazin-2-y1)amino)-1H-pyrazol-5-yl)cyclopentyl isopropylcarbamate], the “improvement in potency against CDK2 (Ki) over Comparator C” value in assay [1] is given as 123 fold. The Ki in assay [1] (Table O) came to 0.26 nM; in assay [1] (Table Q), 0.26 nM; in assay [3] it was 6.3 nM; in assay [4], 28 nM. The “FS CDK1/CDK2” value in assay [1] (setting [5]) amounted to 24; in assay [1] (Table Q, enzymatic) it was 24. For the same molecule, the “FS CDK4/CDK2” value in assay [1] (setting [6]) was 110; in assay [1] (Table Q, enzymatic), 110. The “increased fold-selectivity CDK4/CDK2 over Comparator C” value in assay [1] (Table Q) was “(+) (The (+) sign in Table Q signifies desirable increased fold-selectivity of the exemplary compounds over Comparator C)”. The IC50 was determined as 580 nM with SKOV-3 (ATCC HTB-77) (SK-OV-3, Table O); 580 nM with SKOV-3 (ATCC HTB-77) (SK-OV-3, Table Q); 20 nM in assay [2] (Table O); 7 nM with HCT116 cells. Further, the “FS SKOV-3/OVISE” value in assay [2] (setting [7]) stood at 29; in assay [2] (Table Q, cellular), 29. In addition, the “FS p-H3/OVISE” value in assay [2] (Table O) turned out to be 0.35. Further, the “increased fold-selectivity SKOV-3/OVISE over Comparator C” value in assay [2] (Table Q) is “(+) (The (+) sign in Table Q signifies desirable increased fold-selectivity of the exemplary compounds over Comparator C)”. In assay [2] (setting [8]), the “improvement in CDK2 OVISE cell potency over Comparator C” value came to 275 fold.

In the case of `CNC(=O)c1ccc(Nc2cc([C@H]3CC[C@@H](OC(=O)NC(C)(C)C)C3)[nH]n2)nc1` [Example 4E, (1R,3S)-3-(3-((5-(methylcarbamoyl)pyridin-2-yl)amino)-1H-pyrazol-5-yl)cyclopentyl tert-butylcarbamate], the Ki in assay [1] (Table O) was found to be 1.6 nM; in assay [1] (Table R) it was 1.6 nM; in assay [1] (Table S), 1.6 nM; in assay [3], 75 nM; in assay [4], 84 nM. Besides, the “FS CDK1/CDK2” value in assay [1] (setting [5]), in assay [3] (Table R) and in assay [3] (Table S) was 47 each time. Besides, the “FS CDK4/CDK2” value in assay [1] (setting [6]), in assay [4] (Table R) and in assay [4] (Table S) was 53 throughout. For the same molecule, the “CDK2 Ki fold change in potency versus Comparator D” value in assay [1] (Table R, in brackets after CDK2 Ki) is recorded as 1.7 fold. The “CDK2 Ki fold change in potency versus Comparator E” value in assay [1] (Table S, in brackets after CDK2 Ki) amounted to 0.3 fold. Besides, the IC50 in the assay with SKOV-3 (ATCC HTB-77) (SK-OV-3, Table O) is 2600 nM; with SKOV-3 (ATCC HTB-77) (SK-OV-3, Table R), 2600 nM; in the assay with SKOV-3 (ATCC HTB-77) (SK-OV-3, Table S) it was 2600 nM; in assay [2] (Table O), 96 nM; in the assay with HCT116 cells, 100 nM. For the same molecule, the “selectivity for CDK2 over CDK4 compared with Comparator E” value in the assay on SKOV-3 (ATCC HTB-77) (SKOV-3/OVISE fold-selectivity cellular assay data) is “increase in selectivity for CDK2 over CDK4”. Also, the “FS SKOV-3/OVISE increased over Comparator D, (+) sign” value with SKOV-3 (ATCC HTB-77) (Table R) is on record as “(+)”. The “FS SKOV-3/OVISE” value (in the assay on SKOV-3 (ATCC HTB-77) (Table R); in the assay on SKOV-3 (ATCC HTB-77) (Table S); in assay [2] (setting [7])) was 27 each time. Further, in the assay on SKOV-3 (ATCC HTB-77) (Table S), the “FS SKOV-3/OVISE increased over Comparator E, (+) sign” value is reported as “(+)”. Further, the “CDK2 cell potency compared with Comparator E” value in assay [2] (CDK2 OVISE cellular assay data) is “more potent CDK2 cell inhibitors compared to Comparator E”. Further, the “FS p-H3/OVISE” value in assay [2] (Table O) is listed as 1.1. Also, the “CDK2 OVISE IC50 fold change in potency versus Comparator D” value in assay [2] (Table R, in brackets after OVISE IC50) came out at 40 fold. In addition, the “CDK2 OVISE IC50 fold change in potency versus Comparator E” value in assay [2] (Table S, in brackets after OVISE IC50) stood at 1.8 fold. Besides, the “FS CDK1/CDK2 increased over Comparator D, (+) sign” value in assay [3] (Table R) is listed as “(+)”. For the same molecule, in assay [4] (Table R), the “FS CDK4/CDK2 increased over Comparator D, (+) sign” value is “(+)”. Moreover, the “FS CDK4/CDK2 increased over Comparator E, (+) sign” value in assay [4] (Table S) is given as “(+)”.

Consider `O=C(NC12CC(C1)C2)O[C@@H]1CC[C@H](c2cc(Nc3ccc(N4CCOCC4)nc3)n[nH]2)C1` [Example 9K, (1R,3S)-3-(3-((6-morpholinopyridin-3-yl)amino)-1H-pyrazol-5-yl)cyclopentyl bicyclo[1.1.1]pentan-1-ylcarbamate], for which the results for the Ki in assay [1] (Table O), in assay [3] and in assay [4] were 5.6 nM, 41 nM and 67 nM, respectively. Also, the “FS CDK1/CDK2” value in assay [1] (setting [5]) amounted to 7.3. Moreover, the “FS CDK4/CDK2” value in assay [1] (setting [6]) is on record as 12. The IC50 in the assay on SKOV-3 (ATCC HTB-77) (SK-OV-3, Table O) was 710 nM; in assay [2] (Table O), 190 nM; with HCT116 cells, 49 nM. Besides, the “FS SKOV-3/OVISE” value in assay [2] (setting [7]) was found to be 3.7. Further, the “FS p-H3/OVISE” value in assay [2] (Table O) was found to be 0.26.

As to `CC(C)NC(=O)O[C@@H]1CC[C@H](c2cc(Nc3ccncn3)n[nH]2)C1` [Example 2C, (1R,3S)-3-(3-(pyrimidin-4-ylamino)-1H-pyrazol-5-yl)cyclopentyl isopropylcarbamate], the “improvement in potency against CDK2 (Ki) over Comparator C” value in assay [1] was 32 fold. Further, the Ki was determined as 1.1 nM in assay [1] (Table O), 1.1 nM in assay [1] (Table Q), 43 nM in assay [3] and 95 nM in assay [4]. Further, the “FS CDK1/CDK2” value is 39 in assay [1] (setting [5]) and 39 in assay [1] (Table Q, enzymatic). Further, the “FS CDK4/CDK2” value in assay [1] (setting [6]) was 86; in assay [1] (Table Q, enzymatic) it was 86. For the same molecule, the “increased fold-selectivity CDK1/CDK2 over Comparator C” value in assay [1] (Table Q, (+) sign after FS CDK1/CDK2) is “(+) (The (+) sign in Table Q signifies desirable increased fold-selectivity of the exemplary compounds over Comparator C)”. Besides, in assay [1] (Table Q), the “increased fold-selectivity CDK4/CDK2 over Comparator C” value was “(+) (The (+) sign in Table Q signifies desirable increased fold-selectivity of the exemplary compounds over Comparator C)”. The IC50 was determined as 4100 nM with SKOV-3 (ATCC HTB-77) (SK-OV-3, Table O); 4100 nM in the assay with SKOV-3 (ATCC HTB-77) (SK-OV-3, Table Q); 110 nM in assay [2] (Table O); 52 nM in the assay on HCT116 cells. The “FS SKOV-3/OVISE” value amounted to 37 in assay [2] (setting [7]) and 37 in assay [2] (Table Q, cellular). For the same molecule, the “FS p-H3/OVISE” value in assay [2] (Table O) is given as 0.47. For the same molecule, the “increased fold-selectivity SKOV-3/OVISE over Comparator C” value in assay [2] (Table Q) is reported as “(+) (The (+) sign in Table Q signifies desirable increased fold-selectivity of the exemplary compounds over Comparator C)”. Moreover, the “improvement in CDK2 OVISE cell potency over Comparator C” value in assay [2] (setting [8]) amounted to 50 fold.
